This test relates to human adipocytes. Put plainly: In vitro lipolytic activity: free fatty acid release from isolated human adipocytes in suspension. It counts as cell-based. The following applies: 2 h at 37° C.; for Free fatty acid concentration: mean of five assays, control 11.54 ± 2.71. As to the method:
This is because triglycerides are stored in the adipocytes and constitute the fat reserve. For this reserve to diminish, which is the desired aim when slimming products are used, the triglycerides must be hydrolysed so that the fatty acids can be removed from the cell. Hydrolysis of the triglycerides to nonesterified fatty acids and glycerol is called lipolysis.
The method described consists in incubating the products in the presence of human adipocytes in suspension, followed by the measurement of the nonesterified fatty acid level in the adipocyte incubation medium. The free fatty acid level thus reflects the hydrolysis of the triglycerides present in the adipocytes.
The test is carried out using human adipocytes isolated and prepared as a cellular suspension. The adipocytes are isolated from the subcutaneous abdominal adipose tissue recovered during plastic surgery operations (abdominal plastic surgery operations) performed on women. The cells are isolated from fresh tissue. The adipose tissue is isolated and dissociated by the action of a collagenase (SIGMA™, 1 mg/ml, 30 minutes at 37° C., gentle stirring). Collagenase digests the connective tissue present in the adipose tissue. After digestion, the cells are filtered and washed in an appropriate culture medium containing MEM medium free of phenol red, free of glutamine (SIGMA)+2.2 mg/ml of sodium bicarbonate (GIBCO)+50 IU of penicillin (BIOWHITTAKER™)+50 μg/ml of streptomycin (BIOWHITTAKER™)+1% (v/v) of L-glutamine (BIOWHITTAKER™)+0.5% of lipid-free serum albumin (SIGMA™). The adipocyte suspension is used immediately after its preparation.
The test products are diluted in the adipocyte culture medium. They are incubated with the cells in suspension for two hours at 37° C. (250 μl of product+250 μl of adipocyte suspension).
After the incubation, the cell lysis is checked visually by the presence of a lipid layer at the surface of the cellular suspension. The supernatant media are collected. The free fatty acids are assayed by spectrophotometry using a commercial kit (NEFA™ C kit, WAKO), with reference to a fatty acid calibration series. The lypolytic activity of the products is evaluated relative to a control group incubated in the presence of adipocytes and in the absence of product. The reactivity of the adipocytes is systematically checked for the measurement of the lipolytic activity of the reference products, caffeine (1,3,7-trimethyl-xanthine) and theophylline (1,3-dimethyl-2,6-dihydroxy-purine). Five assays are performed for each of the test products. The lipolytic activity of LIPACIDE™ C8G, which contains active material 100% N-octanoylglycine, was thus evaluated.

Where [1] appears, read: incubation concentration 0.0019 wt %/volume.
Where [2] appears, read: incubation concentration 0.0001 wt %/volume.
Setting [3] is: incubation concentration 0.0005 wt %/volume.
Setting [4] is: incubation concentration 0.0010 wt %/volume.

`Cn1c(=O)c2c(ncn2C)n(C)c1=O` [Caffeine, 1,3,7-trimethyl-xanthine, reference compound]: under setting [1], the “Lipolytic activity (compared with the control = 100)” value worked out at 131 and the “Free fatty acid concentration” value is 15.10 ± 4.11 µM.

For the compound `CCCCCCCC(=O)NCC(=O)O` [LIPACIDE ™ C8G, N-octanoylglycine], the “Lipolytic activity (compared with the control = 100)” value reads like this: under setting [2], 206; under setting [3], 219; under setting [4], 223. Moreover, the “Free fatty acid concentration” value under setting [2] was determined as 23.83 ± 5.11 µM, the “Free fatty acid concentration” value under setting [3] is 25.30 ± 2.70 µM and the “Free fatty acid concentration” value under setting [4] was determined as 25.75 ± 0.86 µM.
